Common to all, as to assay type: cell-based
The test system of test [1] is Wnt activity (Sp5-Luc reporter, SW480 colon carcinoma cells). The test is described as follows: Wnt activity screening assay, Sp5-Luc reporter gene in SW480 cells. The following applies: Homo sapiens; for inhibition at 10 µM: SW480, read-out: percent inhibition at 10 μM; for EC50: Sp5-Luc reporter, SW480 cells, overnight incubation. The source says:
The screening assay for Wnt activity is described as follows. Reporter cell lines can be generated by stably transducing cancer cell lines (e.g., colon cancer) or primary cells (e.g., IEC-6 intestinal cells) with a lentiviral construct that includes a Wnt-responsive promoter driving expression of the firefly luciferase gene.
SW480 colon carcinoma cells were transduced with a lentiviral vector expressing luciferase with a human Sp5 promoter consisting of a sequence of eight TCF/LEF binding sites. SW480 cells stably expressing the Sp5-Luc reporter gene and a hygromycin resistance gene were selected by treatment with 150 μg/mL of hygromycin for 7 days. These stably transduced SW480 cells were expanded in cell culture and used for all further screening activities. […] For Sp5-Luc reporter gene assays, the cells were plated at 4,000 cells/well in 384-well plates with medium containing 1% fetal bovine serum and incubated overnight at 37° C. and 5% CO2. Following incubation, 20 μl of BrightGlo luminescence reagent (Promega) was added to each well of the 384-well assay plates. The plates were placed on an orbital shaker for 2 min and then luminescence was quantified using the Envision (Perkin Elmer) plate reader. Readings were normalized to DMSO only treated cells, and normalized activities were utilized for EC50 calculations using the dose-response log (inhibitor) vs. response−variable slope (four parameters) nonlinear regression feature available in GraphPad Prism 5.0 (or Dotmatics).
For orientation: In a reporter assay the amount or activity of a reporter protein is the signal.

Test [2] deals with SW480 colon cancer cells. The test is described as follows: Cell viability assay (CellTiter-Blue). Particulars: Homo sapiens; for EC50: 96 h, SW480 cell viability, four days; for inhibition at 10 µM: SW480, 96 h, read-out: percent inhibition at 10 μM. On the procedure: Representative compounds were screened using the following assay procedure to assess the effect on cell viability as described below.
Approximately 2×10^3 SW480 colon cancer cells were seeded into each well and allowed to incubate in the presence or absence of compound for four days at 37° C./5% CO2. Eight replicates of DMSO-treated cells served as controls and cells treated with compound were performed in duplicate.
After incubation, 20 μL of CellTiter-Blue (Promega) was added to each well allowed to incubate for approximately 3 hours. This reagent was a buffered solution which contains resazurin, metabolically active cells were able to reduce rezarurin (blue) into resorufin (pink) which was highly fluorescent. This measured fluorescence was used as a readout for cell viability.
(The colour change of resazurin is a common sign of viable cells or microbes.)

The test system of test [3] is primary human fibroblasts derived from IPF patients (LL29 cells). The test is described as follows: Inhibition of fibrotic process, αSMA staining in TGF-β1 treated fibroblasts. The following applies: Fibroblast; for EC50: 96 h, LL29 cells, TGF-β1 20 ng/mL, 4 days, % αSMA positive cells; for inhibition at 10 µM: read-out: percent inhibition at 10 μM. On the procedure:
Representative compounds were screened using primary human fibroblasts (derived from IPF patients) treated with TGF-β1 to determine their ability to inhibit the fibrotic process.
LL29 cells are plated at 1,500 cells/well in 80 μL/well F12 medium supplemented with 1% Fetal Bovine Serum. […] Wells treated with TGF-31 and containing DMSO were used as controls. […] Following incubation for 4 days, SYTOX green nucleic acid stain (Life Technologies [Thermo Fisher Scientific]) was added to the wells at a final concentration of 1 μM and incubated at room temperature for 30 min.

Test [4] concerns IL-6. Briefly: IL-6 inhibition in LPS-stimulated THP-1 cells (HTRF). Particulars: Homo sapiens; for inhibition at 10 µM: THP-1, read-out: percent inhibition at 10 μM; for EC50: THP-1 cells, LPS 500 ng/mL, 22 hours, IL6 HTRF. On the procedure: THP-1 cells were cultured in basal media with 1% FBS for 24 hours before the start of the assay. […] THP-1 cells were plated at 5000 cells/well in the 384-well plates and incubated at 37° C. for 2 h. 500 ng/mL of LPS was added after 2 hours and cells were incubated for another 22 hours at 37° C. Plates were spun in a centrifuge for 1 minute at […] and a mixture of anti-IL6 XL665, and anti-IL6 Cryptate diluted in reconstitution buffer (Cisbio Inc.) was added to each well. Following incubation for 3 hrs at room temperature, Homogeneous Time-Resolved Fluorescence (HTRF) was measured using the Envision (Perkin Elmer) at 665 nm and […]. The ratio of fluorescence at 665 nm to 620 nm was used as a readout for IL6 quantification. All samples were processed in duplicate. Readings were normalized to DMSO treated cells and normalized activities were utilized for EC50 calculations using the dose-response log (inhibitor) vs. response−variable slope (four parameters) nonlinear regression feature available in GraphPad Prism 5.0 (or Dotmatics).

This is an account of results in patent publication US20180221352A1, “3-(1H-PYRROLO[2,3-C]PYRIDIN-2-YL)-1H-PYRAZOLO[3,4-B]PYRIDINES AND THERAPEUTIC USES THEREOF” (Samumed, LLC, priority 2015, published 2018).

As a reminder, the inhibition is the change of the read-out against control, counted positive when it falls. For orientation: EC50 means the concentration giving half of the maximal effect. Lower therefore signals higher potency in that assay.

With `O=C(Nc1cncc(-c2cnc3[nH]nc(-c4cc5c(-c6cccc(F)c6)cncc5[nH]4)c3c2)c1)c1ccccc1` [Compound 11, N-(5-(3-(4-(3-Fluorophenyl)-1H-pyrrolo[2,3-c]pyridin-2-yl)-1H-pyrazolo [3,4-b]pyridin-5-yl)pyridin-3-yl)benzamide], the inhibition at 10 µM in test [1] is 22.5%; in test [2], 16.8%; in test [4], 20.2%. Also, the 50% effective concentration (EC50) is above 10000 nM in test [1], above 10000 nM in test [2], 7570 nM in test [3] and above 10000 nM in test [4].

`Fc1cccc(-c2cncc3[nH]c(-c4n[nH]c5ncc(-c6ccncc6)cc45)cc23)c1` [Compound 18, 3-(4-(3-Fluorophenyl)-1H-pyrrolo[2,3-c]pyridin-2-yl)-5-(pyridin-4-yl)-1H-pyrazolo[3,4-b]pyridine]: the EC50 is 4150 nM in test [1], 1900 nM in test [2], 1230 nM in test [3] and above 10000 nM in test [4]. Also, the inhibition at 10 µM in test [4] was determined as 20.3%.

On to `O=C(Nc1cncc(-c2cnc3[nH]nc(-c4cc5c(-c6cccc(F)c6)cncc5[nH]4)c3c2)c1)C1CCC1` [Compound 21, N-(5-(3-(4-(3-Fluorophenyl)-1H-pyrrolo[2,3-c]pyridin-2-yl)-1H-pyrazolo [3,4-b]pyridin-5-yl)pyridin-3-yl)cyclobutanecarboxamide], for which the concentration for a half-maximal effect (EC50) in test [1] stood at 532 nM; in test [2], 586 nM; in test [3], 310 nM; in test [4], 324 nM.

As to `CC(C)CC(=O)Nc1cncc(-c2cnc3[nH]nc(-c4cc5c(-c6ccc(F)cc6)cncc5[nH]4)c3c2)c1` [Compound 30, N-(5-(3-(4-(4-Fluorophenyl)-1H-pyrrolo[2,3-c]pyridin-2-yl)-1H-pyrazolo [3,4-b]pyridin-5-yl)pyridin-3-yl)-3-methylbutanamide], the EC50 in test [1] was 1630 nM; in test [2], 1620 nM; in test [3], 1140 nM; in test [4] it was above 10000 nM. Besides, the inhibition at 10 µM in test [4] came out at 24.6%.

Regarding `CC(C)(C)C(=O)Nc1cncc(-c2cnc3[nH]nc(-c4cc5c(-c6ccc(F)cc6)cncc5[nH]4)c3c2)c1` [Compound 36, N-(5-(3-(4-(4-Fluorophenyl)-1H-pyrrolo[2,3-c]pyridin-2-yl)-1H-pyrazolo [3,4-b]pyridin-5-yl)pyridin-3-yl)pivalamide], in test [1], the inhibition at 10 µM stood at 18.8%. The EC50 in test [1] was above 10000 nM; in test [2], 2080 nM; in test [3], 2550 nM; in test [4] it was 127 nM.

As for `O=C(Nc1cncc(-c2cnc3[nH]nc(-c4cc5c(-c6ccc(F)cc6)cncc5[nH]4)c3c2)c1)C1CCCCC1` [Compound 51, N-(5-(3-(4-(4-Fluorophenyl)-1H-pyrrolo[2,3-c]pyridin-2-yl)-1H-pyrazolo [3,4-b]pyridin-5-yl)pyridin-3-yl)cyclohexanecarboxamide], the EC50 was 2940 nM in test [1], 1440 nM in test [2], 1180 nM in test [3] and 3470 nM in test [4].

As to `Fc1ccc(-c2cncc3[nH]c(-c4n[nH]c5ncc(-c6ccccn6)cc45)cc23)cc1` [Compound 56, 3-(4-(4-Fluorophenyl)-1H-pyrrolo[2,3-c]pyridin-2-yl)-5-(pyridin-2-yl)-1H-pyrazolo[3,4-b]pyridine], the inhibition at 10 µM in test [1] is 15.5%; in test [3], 38.2%; in test [4], 25%. Further, the EC50 is above 10000 nM in test [1], 5740 nM in test [2], above 10000 nM in test [3] and above 10000 nM in test [4].

In the case of `CC(C)(C)CC(=O)Nc1cncc(-c2cnc3[nH]nc(-c4cc5c(-c6ccccc6F)cncc5[nH]4)c3c2)c1` [Compound 72, N-(5-(3-(4-(2-Fluorophenyl)-1H-pyrrolo[2,3-c]pyridin-2-yl)-1H-pyrazolo [3,4-b]pyridin-5-yl)pyridin-3-yl)-3,3-dimethylbutanamide], the EC50 in test [1] turned out to be 1010 nM; in test [2], 747 nM; in test [3], 384 nM; in test [4], 3120 nM.

Take `O=C(Nc1cncc(-c2cnc3[nH]nc(-c4cc5c(-c6ccccc6F)cncc5[nH]4)c3c2)c1)C1CCCC1` [Compound 78, N-(5-(3-(4-(2-Fluorophenyl)-1H-pyrrolo[2,3-c]pyridin-2-yl)-1H-pyrazolo [3,4-b]pyridin-5-yl)pyridin-3-yl)cyclopentanecarboxamide]: the concentration for a half-maximal effect (EC50) in test [1] stood at 840 nM; in test [2] it was 638 nM; in test [3], 408 nM; in test [4], 1290 nM.

On to `CCC(=O)Nc1cncc(-c2cnc3[nH]nc(-c4cc5c(-c6cccnc6)cncc5[nH]4)c3c2)c1` [Compound 85, N-(5-(3-(4-(Pyridin-3-yl)-1H-pyrrolo[2,3-c]pyridin-2-yl)-1H-pyrazolo[3,4-b]pyridin-5-yl)pyridin-3-yl)propionamide], for which the inhibition at 10 µM in test [1] was determined as 9.3%; in test [2] it was 10%; in test [3], 44.2%; in test [4], 34.1%. Also, the EC50 in test [1], in test [2], in test [3] and in test [4] was above 10000 nM each time.

As to `c1ccc(-c2cnc3[nH]nc(-c4cc5c(-c6cccnc6)cncc5[nH]4)c3c2)nc1` [Compound 112, 5-(Pyridin-2-yl)-3-(4-(pyridin-3-yl)-1H-pyrrolo[2,3-c]pyridin-2-yl)-1H-pyrazolo[3,4-b]pyridine], the inhibition at 10 µM in test [1] is 44.2%; in test [4], 16.9%. In addition, the 50% effective concentration (EC50) in test [1] was above 10000 nM; in test [2], 3680 nM; in test [3], 2190 nM; in test [4], above 10000 nM.

Regarding `CC(C)Nc1cncc(-c2cnc3[nH]nc(-c4cc5c(-c6ccncc6)cncc5[nH]4)c3c2)c1` [Compound 124, N-Isopropyl-5-(3-(4-(pyridin-4-yl)-1H-pyrrolo[2,3-c]pyridin-2-yl)-1H-pyrazolo[3,4-b]pyridin-5-yl)pyridin-3-amine], the figures for the inhibition at 10 µM in test [1] and in test [2] were 15.5% and 3.2%, respectively. The half-maximal effective concentration (EC50) in test [1] is above 10000 nM; in test [2], above 10000 nM; in test [3] it was 2400 nM; in test [4], 68 nM.

For the compound `O=C(Nc1cncc(-c2cnc3[nH]nc(-c4cc5c(-c6ccncc6)cncc5[nH]4)c3c2)c1)C1CCCC1` [Compound 134, N-(5-(3-(4-(Pyridin-4-yl)-1H-pyrrolo[2,3-c]pyridin-2-yl)-1H-pyrazolo[3,4-b]pyridin-5-yl)pyridin-3-yl)cyclopentanecarboxamide], the inhibition at 10 µM in test [1] was determined as 0%; in test [2], 10.6%; in test [3], 27.9%; in test [4] it was 30%. Besides, the EC50 in test [1], in test [2], in test [3] and in test [4] was above 10000 nM each time.

On to `CCNCc1cncc(-c2cnc3[nH]nc(-c4cc5c(N6CCCCC6)cncc5[nH]4)c3c2)c1` [Compound 174, N-((5-(3-(4-(Piperidin-1-yl)-1H-pyrrolo[2,3-c]pyridin-2-yl)-1H-pyrazolo [3,4-b]pyridin-5-yl)pyridin-3-yl)methyl)ethanamine], for which the EC50 in test [1] stood at 9460 nM; in test [2], 4140 nM; in test [3], 3610 nM; in test [4] it was 3400 nM.
